Common to all, as to type: cell-based, hepatitis C virus
Experiment [1] relates to genotype 3a (S52) stable HCV replicon in Huh-7-derived cells. The experiment can be described thus: Stable subgenomic HCV replicon EC50, genotype 3a (Renilla luciferase). The settings on record: Hepatitis C virus, 72 h, read-out: EC50 3A RLUC. As to the method:
(§1) Antiviral potency (EC50) was determined in both stable subgenomic HCV replicon cell lines and transient-transfected HCV replicon cells. The term half maximal effective concentration (EC50) refers to the concentration of a drug which induces a response halfway between the baseline and maximum after the exposure time specified below.
(§2) Stable subgenomic HCV replicons for genotype 1a, 1b, 2a, 3a, and 4a were established in Huh-7-derived cells as described by Lohmann et al (Lohmann V, Korner F, Koch J, et al Replication of subgenomic hepatitis C virus RNAs in a hepatoma cell line. Science 1999; 285:119-3) Each stable cell line contains a bicistronic HCV replicon that encodes a humanized Renilla luciferase (hRLuc) reporter gene fused to a selectable neomycin-resistance gene, followed by an EMCV IRES and the NS3-NS5B coding region of HCV. […] Luciferase activity was measured as a marker for intracellular HCV replication levels.
(§3) The genotype 1a stable replicon was derived from the H77 HCV strain and contained adaptive mutations P1496L and S2204I. The genotype 1b stable replicon was derived from the Con1 HCV strain and contained adaptive mutations E1202G, T1280I and K1846T. […] The genotype 3a stable replicon was derived from the S52 HCV strain and contained adaptive mutations P1121L, A1198T and S2210I (equivalent to S2204I in genotype 1). The genotype 4a stable replicon was derived from the ED43 HCV strain and contained adaptive mutations Q1691R and S2204I. All replicon cell lines were propagated in Huh-7-derived cells and maintained in Dulbecco's modified Eagle's Medium (DMEM) supplemented with 10% fetal bovine serum (FBS) and 0.5 mg/mL G418.
(§4) To perform EC50 assays, cells from each HCV replicon were dispensed into 384-well plates. Compounds were dissolved in DMSO at a concentration of 10 mM and diluted in DMSO using an automated pipetting instrument. Three-fold serially diluted compounds were directly added to the cells using an automated instrument. […] Seventy-two hours later, cells were lysed and Renilla luciferase activity were quantified as recommended by the manufacturer (Promega-Madison, Wis.). Non-linear regression was performed to calculate EC50 values.

Experiment [2] concerns genotype 3a (S52) wild type transient HCV replicon in Huh-7-derived cells. The experiment can be described thus: Transient-transfected HCV replicon EC50, genotype 3a wild type. The settings on record: Hepatitis C virus; transient-transfected replicon genotype 3a wild type, 72 h; read-out: EC50 3A WT. In general terms: In antiviral work, replicon cells carry a viral genome segment that copies itself.

The test system of experiment [3] is genotype 1a (H77) wild type transient HCV replicon in Huh-7-derived cells. The experiment can be described thus: Transient-transfected HCV replicon EC50, genotype 1a wild type. The settings on record: Hepatitis C virus, 72 h, transient-transfected replicon genotype 1a wild type, read-out: EC50 1A WT.
In experiment [4] the test system is genotype 1a NS3/4a protease inhibitor resistant variant R155K transient HCV replicon in Huh-7-derived cells. The experiment can be described thus: Transient-transfected HCV replicon EC50, genotype 1a R155K. As to conditions: Hepatitis C virus, 72 h, read-out: EC50 1A R155K, transient-transfected replicon genotype 1a R155K resistant variant, 72 h.
Experiment [5] deals with genotype 4a (ED43) stable HCV replicon in Huh-7-derived cells. The experiment can be described thus: Stable subgenomic HCV replicon EC50, genotype 4a (Renilla luciferase). The settings on record: Hepatitis C virus, 72 h, read-out: EC50 4A RLUC. As to the method:
as §1, §2, §3, §4

Experiment [6] concerns genotype 1b (Con1) wild type transient HCV replicon in Huh-7-derived cells. The experiment can be described thus: Transient-transfected HCV replicon EC50, genotype 1b wild type. The settings on record: Hepatitis C virus, 72 h, transient-transfected replicon genotype 1b wild type, read-out: EC50 1B WT.
Experiment [7] has as its system genotype 1b NS3/4a protease inhibitor resistant variant D168A transient HCV replicon in Huh-7-derived cells. The experiment can be described thus: Transient-transfected HCV replicon EC50, genotype 1b D168A. As to conditions: Hepatitis C virus, 72 h, read-out: EC50 1B D168A, transient-transfected replicon genotype 1b D168A resistant variant, 72 h.
In experiment [8] the test system is genotype 1b (Con1) stable HCV replicon in Huh-7-derived cells. The experiment is described as follows: Stable subgenomic HCV replicon EC50, genotype 1b (Renilla luciferase). The settings on record: Hepatitis C virus, stable replicon genotype 1b, 72 h, read-out: EC50 1B RLUC. How it is done: as §1, §2, §3, §4
The subject of experiment [9] is genotype 1a (H77) stable HCV replicon in Huh-7-derived cells. The experiment is described as follows: Stable subgenomic HCV replicon EC50, genotype 1a (Renilla luciferase). As to conditions: Hepatitis C virus, stable replicon genotype 1a, 72 h, read-out: EC50 1A RLUC. As to the method: as §1, §2, §3, §4
Experiment [10] concerns genotype 2a (JFH-1) stable HCV replicon in Huh-7-derived cells. The experiment can be described thus: Stable subgenomic HCV replicon EC50, genotype 2a (Renilla luciferase). As to conditions: Hepatitis C virus, stable replicon genotype 2a, 72 h, read-out: EC50 2A RLUC. As to the method: as §1, §2, §3, §4

As usually defined, the EC50 is the concentration giving half of the maximal effect.

With `C[C@@H]1[C@@H]2CN(C(=O)[C@H](C(C)(C)C)NC(=O)O[C@@H]3C[C@@H]4C[C@@H]4[C@H]3CCCCCc3nc4ccc(C#N)cc4nc3O2)[C@@H]1C(=O)NC1(C(=O)NS(=O)(=O)C2(C)CC2)C[C@H]1C(F)F` (stereo partly drawn) [Example 97, (1aS,2aR,6S,9S,10S,11R,23aR,23bS)-6-tert-butyl-15-cyano-N-[(2R)-2-(difluoromethyl)-1-{[(1-methylcyclopropyl)sulfonyl]carbamoyl}cyclopropyl]-10-methyl-4,7-dioxo-1a,2,2a,4,5,6,7,10,11,19,20,21,22,23,23a,23b-hexadecahydro-1H, 9H-8,11-methanocyclopropa[4′,5′]cyclopenta[1′,2′:18,19][1,10,3,6]dioxadiazacyclononadecino[11,12-b]quinoxaline-9-carboxamide], the EC50 came out at 67 nM in experiment [1]; 5.8 nM in experiment [2]; 3.6 nM in experiment [3]; 3.7 nM in experiment [4]; 5.3 nM in [5]; 2.5 nM in experiment [6]. Further, the EC50 in experiment [7] is 8.8 nM; in [8] it was 4.6 nM; in experiment [9], 6.3 nM; in experiment [10] it was 5.8 nM.

For the compound `COc1ccc2nc3c(nc2c1)O[C@H]1CN(C(=O)[C@H](C(C)(C)C)NC(=O)O[C@@]2(C)C[C@@H]2CCCCC3(F)F)[C@H](C(=O)N[C@]2(C(=O)NS(=O)(=O)C3(C)CC3)C[C@H]2C(F)F)[C@@H]1C` [Example 77, (1 aS,5S,8S,9S,10R,22aS)-5-tert-butyl-N-[(1R,2R)-2-(difluoromethyl)-1-{[(1-methylcyclopropyl)sulfonyl]carbamoyl}cyclopropyl]-18,18-difluoro-14-methoxy-1a,9-dimethyl-3,6-dioxo-1,1a,3,4,5,6,9,10,18,19,20,21,22,22a-tetradecahydro-8H-7,10-methanocyclopropa[18,19][1,10,3,6]dioxadiazacyclononadecino[11,12-b]quinoxaline-8-carboxamide], the concentration giving a half-maximal response (EC50) stood at 741 nM in experiment [1]; 472 nM in [2]; 21 nM in [3]; 34 nM in experiment [4]; 16 nM in [5]; 5 nM in [6]. Further, the EC50 in experiment [7] is 80 nM; in experiment [8], 12 nM; in experiment [9] it was 23 nM; in experiment [10], 29 nM.

Take `CC[C@@H]1[C@@H]2CN(C(=O)[C@H](C(C)(C)C)NC(=O)O[C@@H]3C[C@H]3CCCCC(F)c3nc4ccc(OC)cc4nc3O2)[C@@H]1C(=O)N[C@]1(C(=O)NS(=O)(=O)C2(C)CC2)C[C@H]1C(F)F` (stereo partly drawn) [Example 90, (1aR,5S,8S,9S,10R,22aR)-5-tert-butyl-N-[(1R,2R)-2-(difluoromethyl)-1-{[(1-methylcyclopropyl)sulfonyl]carbamoyl}cyclopropyl]-9-ethyl-18-fluoro-14-methoxy-3,6-dioxo-1,1a,3,4,5,6,9,10,18,19,20,21,22,22a-tetradecahydro-8H-7,10-methanocyclopropa[18,19][1,10,3,6]dioxadiazacyclononadecino[11,12-b]quinoxaline-8-carboxamide]: the EC50 in experiment [1] is 114 nM; in [2] it was 43 nM; in [5], 10.4 nM; in experiment [8], 9.6 nM; in experiment [9] it was 12 nM; in experiment [10] it was 8.8 nM.
